One assay concerns E. coli BL21. The assay is described as follows: Time course of growth and GFP expression in E. coli BL21 in high cell density fed-batch cultivation in mineral medium. In kind it is cell-based, Escherichia coli. As to conditions: for RFU/OD / OD: additive 5 mM; for OD Factor / RFU/OD Factor: additive vs control. How it is done: (§1) The measurement of GFP expression by whole cell fluorescence measurements follows the procedure of Scholz et al. (Eur. J. Biochem., 2000,267, 1565-1570). Frozen cell pellets are thawed, resuspended in 1 mL PBS [NaCl (8 g/L), KCl (0.2), of Na2HPO4 (1.44), KH2PO4 (0.24), adjusted to pH 7.4] and subsequently diluted to an optical density of 0.1. GFP fluorescence of whole cells is measured in a Eclipse Fluorometer (Varian) with an excitation wavelength of 400 nm and an emission wavelength of 512 nm. Specific relative fluorescence [RFU/OD600] is calculated by dividing the relative fluorescence emmision units by the optical density of the suspension at 600 nm.
(§2) E. coli BL21 [Novagen, Madison, USA; Genotype: E ompT hsdSB (rB^− mB^−) gal dcm (DE3)] harboring the plasmid pET28a-GFPuv was constructed as detailed in Example 2. A first preculture is initiated from glycerol stocks stored at −80° C. in 3 mL of LB medium containing 0.01% (v/v) Antifoam A (Fluke). After growth for 10-12 h it is used to seed 2×100 mL of mineral medium (as described in Example 1) containing 0.01% Antifoam A (silicone fluid containing a suspension of finely powdered silica to enhance its defoaming efficiency; Dow Corning Corporation, Midland, Mich., USA), in 1 L baffled shake flasks. After 10-12 h this culture is centrifuged, resuspended in 50 mL mineral medium and is used to inoculate the main culture.
(§3) Cultivation is performed in BioFlow110 bioreactors (Total volume 2.2 L; New Brunswick Scientific, Nürtingen, Germany) filled with 1 L of mineral medium plus 0.01% (v/v) Antifoam A for the batch phase. Reactors are equipped with pH, pO2 and foam probes, mass flow controllers to control gas flow and ratio of air and pure oxygen and pumps for automated dosage of base (14% [v/v] aqueous NH3), antifoam (25% [v/v] Antifoam A) and nutrient feed solution. The agitation is set to 500 rpm and air is supplied at a gas flow rate of 2 L/min. The fedbatch culture is inoculated to an OD600 of 0.25-0.5 and allowed to grow unlimited with a specific growth rate of ˜0.5 h^−1. Growth is monitored by measuring OD600. When the dissolved oxygen concentration decreases to 30%, automated adjustment of the air:oxygen ratio in the gas mix is started to control dO2 to 30% using a PID loop. When the gas mix consisted of 100% oxygen a further increase in oxygen transfer is achieved through increasing the agitation rate up to a maximum level of 1200 rpm. When glycerol in the batch medium is completely consumed, as indicated by a distinct drop of pure oxygen in the gas mix, feeding solutions (first containing 70 g/L glycerol and later as cell density increased 200 g/L glycerol in mineral medium) are pumped into the reactor by a predefined exponential fed scheme. The feeding rate is calculated to allow the cells to grow at a growth rate of approximately 0.15 h^−1. During the feeding phase dO2 is also kept at 30%. 3-6 h after starting the feeding protein expression is induced by the addition of 0.2 (w/v) L-arabinose. Samples are taken every hour for OD600 reading and to obtain cell pellets which are stored at −20° C. for further analysis. Analysis of in vivo GFP fluorescence is performed by the method described in Example 1.

A further assay deals with E. coli JM109. Kind of assay: Growth and GFP expression in high cell density fedbatch cultivation of E. coli JM109 in mineral medium. In kind it is cell-based, Escherichia coli. The settings on record: for Optical density Value / GFP expression (RFU/OD600) Value: additive 5 mM. The procedure: as §1
as §2, with “A first preculture of E.” for “E.”, “JM109” for “BL21 [Novagen, Madison, USA; Genotype: E ompT hsdSB (rB^− mB^−) gal dcm (DE3)]”, “pBAD-GFPuv” for “pET28a-GFPuv was constructed as detailed in Example 2. A first preculture”, “(Fluka).” for “(Fluke).”, “centrifuged” for “centrifuged,”
as §3, with “incoculated” for “inoculated”, “disolved” for “dissolved”

Setting [1] is: cultivation time 16.5 h, 2.5 h after induction.
Setting [2] is: cultivation time 20.8 h, 6.0 h after induction.
The mark [3] stands for this setting: cultivation time 32.5 h, 18 h after induction.
Setting [4] is: Experiment 1, process time 26.75 h, relative to control = 1.

For the molecule `CC1(C)CC(O)CC(C)(C)N1[O]` [4-Hydroxy-2,2,6,6-tetramethylpiperidin-1-oxyl], the RFU/OD was 107.9 RFU/OD in the assay with E. coli BL21 (cultivation time 16.5 h, 2.5 h after induction, control 9.1); 678.8 RFU/OD in the assay on E. coli BL21 (cultivation time 20.8 h, 6.0 h after induction, control 264.7); 873 RFU/OD in the assay with E. coli BL21 (cultivation time 32.5 h, 18 h after induction, control 486.5). In addition, the OD in the assay on E. coli BL21 (cultivation time 16.5 h, 2.5 h after induction, control 30.11) stood at 43.57 OD; with E. coli BL21 (cultivation time 20.8 h, 6.0 h after induction, control 48.46) it was 68.52 OD; in the assay on E. coli BL21 (cultivation time 32.5 h, 18 h after induction, control 83.39), 94.75 OD. The “OD Factor” value with E. coli BL21 (setting [1]) was 1.45; with E. coli BL21 (setting [2]), 1.41; with E. coli BL21 (setting [3]), 1.14. The “RFU/OD Factor” value worked out at 11.86 in the assay with E. coli BL21 (setting [1]), 2.56 in the assay on E. coli BL21 (setting [2]) and 1.79 in the assay with E. coli BL21 (setting [3]). For the same molecule, the “Optical density Value” in the assay on E. coli JM109 (Experiment 1, process time 26.75 h, control 9.86) was found to be 11.86; in the assay on E. coli JM109 (Experiment 2, process time 18 h, control 6.67), 11.42. Moreover, the “GFP expression (RFU/OD600) Value” with E. coli JM109 (Experiment 1, process time 26.75 h, control 211) amounted to 535 RFU/OD600; in the assay on E. coli JM109 (Experiment 2, process time 18 h, control 0) it was 190 RFU/OD600. Also, the “GFP expression Factor” value in the assay with E. coli JM109 (setting [4]) was 2.53. Moreover, the “Optical density Factor” value turned out to be 1.20 with E. coli JM109 (setting [4]) and 1.7 with E. coli JM109 (Experiment 2, process time 18 h, relative to control = 1).

(Values after patent US8859235B2, “Methods in cell cultures, and related inventions, employing certain additives” (priority 2009, dated 2014).)
